Measurements from article PMC11945486, “TAS1R2/TAS1R3 Single-Nucleotide Polymorphisms Affect Sweet Taste Receptor Activation by Sweeteners: The SWEET Project” (Nutrients, 2025).
No end group written: not given here.

T1: human TAS1R2-K689Q/TAS1R3-WT (Homo sapiens, UniProt Q7RTX0+Q8TE23, K689Q)
T1 construct: expressed in transfected cells; host or cells: HEK293T-Gα16gust44
T1 sequence (Q8TE23 20-839 K689Q): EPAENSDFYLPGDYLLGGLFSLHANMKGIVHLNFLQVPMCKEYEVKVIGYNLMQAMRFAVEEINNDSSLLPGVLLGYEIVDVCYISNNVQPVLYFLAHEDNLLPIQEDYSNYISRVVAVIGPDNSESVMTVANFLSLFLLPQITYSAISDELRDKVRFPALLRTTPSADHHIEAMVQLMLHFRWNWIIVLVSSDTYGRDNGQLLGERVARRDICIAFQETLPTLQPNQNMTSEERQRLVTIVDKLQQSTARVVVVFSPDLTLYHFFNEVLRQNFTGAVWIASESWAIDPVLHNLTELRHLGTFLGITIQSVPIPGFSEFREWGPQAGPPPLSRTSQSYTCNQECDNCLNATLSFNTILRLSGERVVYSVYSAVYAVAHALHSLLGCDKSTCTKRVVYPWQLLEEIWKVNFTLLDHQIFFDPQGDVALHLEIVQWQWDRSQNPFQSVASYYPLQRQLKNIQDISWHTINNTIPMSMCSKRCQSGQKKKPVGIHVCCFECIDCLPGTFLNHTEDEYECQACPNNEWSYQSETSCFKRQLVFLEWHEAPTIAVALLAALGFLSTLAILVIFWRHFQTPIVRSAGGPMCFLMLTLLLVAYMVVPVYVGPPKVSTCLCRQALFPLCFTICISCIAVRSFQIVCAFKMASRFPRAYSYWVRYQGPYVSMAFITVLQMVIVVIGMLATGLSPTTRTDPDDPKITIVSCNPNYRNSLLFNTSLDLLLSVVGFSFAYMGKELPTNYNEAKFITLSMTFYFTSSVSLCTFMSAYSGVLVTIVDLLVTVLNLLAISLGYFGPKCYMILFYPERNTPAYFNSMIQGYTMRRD
T1 sequence (Q7RTX0 21-852): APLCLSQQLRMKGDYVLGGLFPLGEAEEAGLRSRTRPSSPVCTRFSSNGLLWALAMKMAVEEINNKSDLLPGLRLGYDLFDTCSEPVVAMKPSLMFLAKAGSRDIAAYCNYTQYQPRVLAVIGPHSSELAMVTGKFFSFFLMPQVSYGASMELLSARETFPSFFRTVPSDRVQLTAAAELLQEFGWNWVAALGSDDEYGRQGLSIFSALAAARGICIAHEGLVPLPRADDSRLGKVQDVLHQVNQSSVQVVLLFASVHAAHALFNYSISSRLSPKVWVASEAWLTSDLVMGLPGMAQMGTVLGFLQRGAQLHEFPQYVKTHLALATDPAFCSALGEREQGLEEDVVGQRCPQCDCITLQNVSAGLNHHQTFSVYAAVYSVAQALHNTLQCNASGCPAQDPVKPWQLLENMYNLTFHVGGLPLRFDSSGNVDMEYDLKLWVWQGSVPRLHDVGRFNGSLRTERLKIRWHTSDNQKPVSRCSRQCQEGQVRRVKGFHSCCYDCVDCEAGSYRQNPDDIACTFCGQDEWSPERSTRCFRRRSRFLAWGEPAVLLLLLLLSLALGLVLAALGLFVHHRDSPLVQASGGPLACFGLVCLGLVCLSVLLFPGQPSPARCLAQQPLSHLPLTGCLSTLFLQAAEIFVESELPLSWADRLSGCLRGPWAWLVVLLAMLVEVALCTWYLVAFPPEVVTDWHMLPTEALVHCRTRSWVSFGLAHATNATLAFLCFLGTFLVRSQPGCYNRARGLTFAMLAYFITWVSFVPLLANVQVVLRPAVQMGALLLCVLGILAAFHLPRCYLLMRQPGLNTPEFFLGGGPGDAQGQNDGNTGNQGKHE


Target: T1, human TAS1R2-K689Q/TAS1R3-WT
Assay: Calcium mobilisation assay, TAS1R2 variant K689Q with TAS1R3-WT
Format: cell-based
Settings: "-": no activation; for EC50: "nd": not determined; for Max ΔF/F0: maximal signal amplitude
Description: The coding sequences for TAS1R2 and TAS1R3 were commercially synthesised, and the human codon was optimised for expression in human cells. The coding sequences of human TAS1R2 and TAS1R3 were subcloned and inserted into the mammalian expression vectors pcDNA6/myc-HisA and pcDNA4/myc-HisA (Invitrogen; Thermo Fisher Scientific; Illkirch, France) between the EcoRI and NotI restriction sites, generating the plasmids pcDNA6-TAS1R2 and pcDNA4-TAS1R3, respectively. To increase protein expression in mammalian cells, an upstream start codon was used, which was a sequence called MAX, corresponding to the QBI SP163 element also described in pcDNA4-HisMax (Invitrogen; Thermo Fisher Scientific; Illkirch, France). To measure the expression level of the receptor by immunohistochemistry, we used the FLAG sequence ([…]) in the C-terminal position, which encodes the FLAG tag epitope. SNP variants of TAS1R2 and TAS1R3 were constructed based on […], respectively, using site-directed mutagenesis (Genewiz; Leipzig, Germany).
The HEK293T cells were kindly provided by Jay P. Slack (Givaudan Flavors Corporation; Cincinnati, OH, USA). HEK293T cells stably transfected with Gα16gust44 [43, 67] were seeded in poly-D-lysine-coated clear-bottom black 96-well plates (0.35 × 10^5 cells/well) in high-glucose DMEM supplemented with 2 mM GlutaMAX, 10% dialysed foetal bovine serum with penicillin/streptomycin and G418 (400 μg/mL) at 37 °C and 6.3% CO2 in a humidified atmosphere as previously reported. […] As a negative control, HEK293T cells were mock-transfected with the empty expression vector. After a further 24 h of incubation, the HEK293T cells were washed with C1 buffer (130 mM NaCl, 5 mM KCl, 10 mM HEPES pH 7.4 and 2 mM CaCl2). The 96-well plates containing the cells were then stimulated with sweet-tasting compounds. […] Different concentration ranges were tested depending on the sweet compound injected. The Ca^2+ changes were expressed as fractional changes in fluorescent light intensity: ΔF/F = (F − F0)/F0, where F was the fluorescent light intensity at each point, and F0 was the value of emitted fluorescent light prior to stimulus application. To calculate dose–response relationships, the changes in fluorescence upon stimulus application were averaged, mock-subtracted and baseline-corrected. The dose–response data obtained were adjusted using a 4-parameter logistic equation. The half-maximal effective concentrations (EC50 values) and maximal signal amplitudes were calculated using SigmaPlot software (version 15.0) (Systat Software; San Jose, CA, USA).
For in vitro calcium mobilisation assay performed on hTAS1R2-SNPs, hTAS1R3-SNPs and mTAS1R3-I60T, 6 to 7 concentrations were tested for each sweet compound, plus buffer alone. All concentration–receptor combinations were measured in duplicate, and each experiment was repeated at least 4 times (8 wells/concentration). Results were expressed for each concentration as ΔF/F mean ± SEM and represented as dose–response curves.

| Molecule | R1 = Variant EC50/WT EC50 | EC50 [µM] | Max ΔF/F0 |
| --- | --- | --- | --- |
| OC[C@H]1O[C@H](O[C@]2(CCl)O[C@H](CCl)[C@@H](O)[C@@H]2O)[C@H](O)[C@@H](O)[C@H]1Cl [Sucralose] | 3.4 | 307 | 0.08 ± 0.01 |
| O=S(=O)(O)NC1CCCCC1 [Cyclamate, cyclamate] | – | 5010 ± 220 | – |
| C=C(C)[C@@H]1CC=C(/C=N/O)CC1 [Perillartine, perillartine] | 7.6 | 132 ± 16.9 | 1.36 ± 0.01 |
| C=C1C[C@@]23CC[C@H]4[C@@](C)(CCC[C@@]4(C)C(=O)O[C@@H]4O[C@H](CO)[C@@H](O)[C@H](O[C@@H]5O[C@H](CO)[C@@H](O)[C@H](O)[C@H]5O)[C@H]4O[C@@H]4O[C@H](CO)[C@@H](O)[C@H](O)[C@H]4O)[C@@H]2CC[C@]1(O[C@@H]1O[C@H](CO)[C@@H](O)[C@H](O[C@@H]2O[C@H](CO)[C@@H](O)[C@H](O)[C@H]2O)[C@H]1O[C@@H]1O[C@H](CO)[C@@H](O)[C@H](O)[C@H]1O)C3 [Rebaudioside M, rebaudioside M] | 4.5 | 75.8 ± 2.3 | 0.36 ± 0.01 |
| COc1ccc(CCC(=O)c2c(O)cc(O[C@@H]3O[C@H](CO)[C@@H](O)[C@H](O)[C@H]3O[C@@H]3O[C@@H](C)[C@H](O)[C@@H](O)[C@H]3O)cc2O)cc1O [NHDC, neohesperidin dihydrochalcone] | – | > 1000 | – |
| thaumatin | 4.4 | – | 0.87 ± 0.09 |
| CC1=CC(=O)NS(=O)(=O)O1 [Acesulfame K, acesulfame K] | 4.3 | – | 0.02 |
| brazzein (QDKCKKVYENYPVSKCQLANQCNYDCKLDKHARSGECFYDEKRNLQCICDYCEY; ends and bridges not checked; cysteine pairing not given here; UniProt P56552 1-54, looked up) [sweet-tasting protein obtained by recombinant production using the yeast Pichia pastoris] | 5.7 | – | 0.64 ± 0.03 |
| C[C@H](CC[C@@H](O[C@@H]1O[C@H](CO[C@@H]2O[C@H](CO)[C@@H](O)[C@H](O)[C@H]2O)[C@@H](O)[C@H](O)[C@H]1O[C@@H]1O[C@H](CO)[C@@H](O)[C@H](O)[C@H]1O)C(C)(C)O)[C@H]1CC[C@@]2(C)[C@@H]3CC=C4[C@@H](CC[C@H](O[C@@H]5O[C@H](CO[C@@H]6O[C@H](CO)[C@@H](O)[C@H](O)[C@H]6O)[C@@H](O)[C@H](O)[C@H]5O)C4(C)C)[C@]3(C)[C@H](O)C[C@]12C [Mogroside V, mogroside V] | 3.3 | 57.9 ± 0.4 | 0.54 ± 0.01 |
| COC(=O)[C@H](Cc1ccccc1)NC(=O)[C@H](CC(=O)O)NCCC(C)(C)C [Neotame] | 4.3 | 3.58 ± 0.46 | 0.12 ± 0.01 |
| thaumatin (protein, Eight disulfides, sweet-tasting plant protein, E957) ATFEIVNRCSYTVWAAASKGDAALDAGGRQLNSGESWTINVEPGTKGGKIWARTDCYFDDSGSGICKTGDCGGLLRCKRFGRPPTTLAEFSLNQYGKDYIDISNIKGFNVPMDFSPTTRGCRGVRCAADIVGQCPAKLKAPGGGCNDACTVFQTSEYCCTTGKCGPTEYSRFFKRLCPDAFSYVLDKPTTVTCPGSSNYRVTFCPTA | – | 33.5 | – |
